Results taken from paper PMC3394770, “Ipomoelin, a Jacalin-Related Lectin with a Compact Tetrameric Association and Versatile Carbohydrate Binding Properties Regulated by Its N Terminus” (PLoS ONE, 2012).
Where two headings read alike, the source gives them in different places. Blank lines part the entries; values can stand above or below the molecule they belong to.

Columns and labels:
IPO (Ipomoelin) = biological target: T1, IPO (Ipomoelin) (Ipomoea batatas, UniProt P93193); assay: isothermal titration calorimetry, one-site fit; type: binding; settings: for Kd: read-out: K A(10^3 M^-1) (converted)
T1 construct: full length (residues 1-154), His-tagged, expressed in E. coli BL21(DE3) from pTZ18UH-IPO
T1 sequence (P93193 1-154): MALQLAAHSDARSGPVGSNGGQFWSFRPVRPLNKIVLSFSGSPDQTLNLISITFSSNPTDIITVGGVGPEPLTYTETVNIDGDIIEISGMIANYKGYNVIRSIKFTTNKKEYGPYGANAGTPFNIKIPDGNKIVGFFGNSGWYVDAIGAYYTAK

ΔN10IPO = biological target: T2, ΔN10IPO (Ipomoea batatas, UniProt P93193); assay: isothermal titration calorimetry, one-site fit; type: binding; settings: 20 mM Tris-HCl, 150 mM NaCl pH 7.0, 25 °C; n fixed at 1.0; read-out: K A(10^3 M^-1) (converted)
T2 construct: gene IPO; N-terminal residues 1-10 removed, Histrap-purified, expressed in E. coli BL21(DE3) from pTZ18UH-ΔN10IPO
Excerpt: isothermal titration calorimetry, one-site fit on ΔN10IPO

[1] = biological target: the molecule itself; assay: crystal structure; hanging-drop vapor diffusion at room temperature; apo IPO and co-crystals with Me-Man, Me-Glc and Me-Gal in four space groups; tetramer in the asymmetric unit or by symmetric operations; interface analysed on IPO–Me-Glc with PDBe PISA
[2] = 20 mM Tris-HCl, 150 mM NaCl pH 7.0, 25 °C, n fixed at 1.0

KA (IPO (Ipomoelin); [2]): 0.57×10^2
Molecule: OC[C@H]1OC(O)[C@H](O)[C@@H](O)[C@H]1O (stereo partly drawn) [Gal]

KA (IPO (Ipomoelin); [2]): 0.32×10^2
Molecule: OC[C@H]1OC(O)[C@H](O)[C@@H](O)[C@@H]1O (stereo partly drawn) [Glc]

KA (IPO (Ipomoelin); [2]): 1.05×10^2
Molecule: OC[C@H]1OC(O)[C@@H](O)[C@@H](O)[C@@H]1O (stereo partly drawn) [Man]

Kd (IPO (Ipomoelin)): 244 µM
Molecule: CO[C@H]1O[C@H](CO)[C@H](O)[C@H](O)[C@H]1O [Me-Gal, methyl α-D-galactopyranoside]

Kd (IPO (Ipomoelin); [2]): 498 µM | Kd (ΔN10IPO): 73.5 µM
Molecule: CO[C@H]1O[C@H](CO)[C@@H](O)[C@H](O)[C@H]1O [Me-Glc, methyl α-D-glucopyranoside]

Kd (IPO (Ipomoelin); [2]): 142 µM | Kd (ΔN10IPO): 26.4 µM
Molecule: CO[C@H]1O[C@H](CO)[C@@H](O)[C@H](O)[C@@H]1O [Me-Man, methyl α-D-mannopyranoside]

B1: Ipomoelin (IPO) (natural protein, UniProt P93193 1-154, looked up)
chain: T1 sequence (P93193 1-154)
notes: Ipomoelin (IPO), Jacalin-related lectin of sweet potato (Ipomoea batatas cv. Tainung 57); gene GenBank D89823.1, protein GenBank BAA14024.1; monomer of residues 1 to 154; recombinant IPO with a His tag is 17.3 kDa as a monomer and 69.2 kDa as a tetramer; also called wildtype IPO; native IPO; source: E. coli BL21 (DE3), purified (Histrap FF)
stoichiometry N [1]: 4
